Results on 25 molecules are retold here after patent US12084420B2, “Indoline compounds for inhibiting KIF18A” (Volastra Therapeutics, Inc., priority 2021, dated 2024).

The target in assay [1] is KIF18a-Microtubule Complex (Homo sapiens (Human), UniProt Q8NI77). Description: Binding kinetics to KIF18a-microtubule complex (global progress curve analysis). The following applies: for koff (off-rate from binding kinetics assay) / kon (on-rate from binding kinetics assay): global progress curve analysis; for Ki: read-out: KI (determined from binding kinetic assay koff/kon), koff/kon; for koff: read-out: koff (off-rate from binding kinetics assay). As to the method: Binding Kinetics to KIF18a-Microtubule Complex
Compound binding kinetics parameters (kon and koff) were determined by the method of global progress curve analysis (GPCA). […] ADP product levels were determined by the Promega® ADP-Glo assay. The time/dose-dependent progress curves were then globally fit to a Michaelis-Menten kinetics model with 1-step slow binding inhibition to derive both on-rate kon and off-rate koff values (Zhang, R., Wong, K. (2017): “High performance enzyme kinetics of turnover, activation and inhibition for translational drug discovery”, Expert Opinion on Drug Discovery, 2017 January; 12(1):17-37. doi: 10.1080/17460441.2017.1245721).

For the next assay, the target named is hKIF18A (1-374) (Homo sapiens (Human), UniProt Q8NI77). Put plainly: Inhibition of KIF18A microtubule-dependent ATPase activity (ADP-Glo). The note with it: KIF18A microtubule-dependent ATPase activity, biochemical assay. On the technique in general: ADP-Glo first removes unused ATP, then detects ADP through luciferase.
Sequence of hKIF18A (1-374) (Q8NI77 whole entry, looked up): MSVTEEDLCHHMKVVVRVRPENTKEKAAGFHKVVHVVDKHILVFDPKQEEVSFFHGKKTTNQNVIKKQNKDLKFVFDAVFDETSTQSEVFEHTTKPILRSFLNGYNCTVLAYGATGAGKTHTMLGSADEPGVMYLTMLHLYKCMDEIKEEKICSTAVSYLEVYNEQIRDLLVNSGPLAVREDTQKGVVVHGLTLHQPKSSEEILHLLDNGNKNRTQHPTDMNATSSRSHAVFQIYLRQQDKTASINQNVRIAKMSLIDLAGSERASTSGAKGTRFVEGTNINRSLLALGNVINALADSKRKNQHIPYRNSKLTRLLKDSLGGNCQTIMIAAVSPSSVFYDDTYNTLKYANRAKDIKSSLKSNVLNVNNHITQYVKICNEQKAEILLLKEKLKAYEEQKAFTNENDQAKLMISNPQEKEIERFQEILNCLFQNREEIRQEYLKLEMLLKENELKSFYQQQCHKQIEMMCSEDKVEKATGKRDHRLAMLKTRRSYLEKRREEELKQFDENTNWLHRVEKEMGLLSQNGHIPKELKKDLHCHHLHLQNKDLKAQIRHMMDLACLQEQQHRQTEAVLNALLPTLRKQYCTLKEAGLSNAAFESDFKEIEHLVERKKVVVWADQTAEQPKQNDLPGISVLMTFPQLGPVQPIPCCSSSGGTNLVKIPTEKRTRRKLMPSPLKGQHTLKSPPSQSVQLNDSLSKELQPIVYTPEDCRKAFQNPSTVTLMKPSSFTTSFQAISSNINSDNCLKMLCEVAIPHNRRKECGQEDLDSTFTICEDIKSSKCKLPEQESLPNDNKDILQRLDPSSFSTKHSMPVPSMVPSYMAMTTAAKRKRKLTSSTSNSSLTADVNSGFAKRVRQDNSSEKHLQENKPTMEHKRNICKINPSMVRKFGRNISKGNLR
Sequence of hKIF18A (1-374) (Q2XVP4 whole entry partner, looked up): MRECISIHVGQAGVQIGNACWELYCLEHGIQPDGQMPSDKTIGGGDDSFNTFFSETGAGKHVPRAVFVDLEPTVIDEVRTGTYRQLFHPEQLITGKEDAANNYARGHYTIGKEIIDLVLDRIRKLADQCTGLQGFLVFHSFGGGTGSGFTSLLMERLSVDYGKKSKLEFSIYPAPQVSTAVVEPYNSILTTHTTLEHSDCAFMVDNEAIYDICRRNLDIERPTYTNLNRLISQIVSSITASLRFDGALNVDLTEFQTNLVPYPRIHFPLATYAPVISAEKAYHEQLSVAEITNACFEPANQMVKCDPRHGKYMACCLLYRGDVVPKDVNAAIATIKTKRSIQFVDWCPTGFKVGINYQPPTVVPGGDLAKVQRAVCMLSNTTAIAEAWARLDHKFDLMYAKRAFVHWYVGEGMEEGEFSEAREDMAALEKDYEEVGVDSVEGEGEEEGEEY
Sequence of hKIF18A (1-374) (P02554 whole entry partner, looked up): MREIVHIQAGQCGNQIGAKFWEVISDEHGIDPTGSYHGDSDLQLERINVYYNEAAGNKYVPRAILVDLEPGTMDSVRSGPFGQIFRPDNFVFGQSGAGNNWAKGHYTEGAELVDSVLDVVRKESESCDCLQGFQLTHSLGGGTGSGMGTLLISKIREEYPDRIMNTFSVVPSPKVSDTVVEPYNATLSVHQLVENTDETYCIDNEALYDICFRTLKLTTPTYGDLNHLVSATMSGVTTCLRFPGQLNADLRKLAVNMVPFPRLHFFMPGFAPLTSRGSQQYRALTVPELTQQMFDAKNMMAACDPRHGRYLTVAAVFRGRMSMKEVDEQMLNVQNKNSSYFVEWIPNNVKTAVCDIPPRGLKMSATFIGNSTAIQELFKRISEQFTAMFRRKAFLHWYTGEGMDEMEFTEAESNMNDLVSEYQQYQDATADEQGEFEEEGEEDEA

Sequence of KIF18a-Microtubule Complex (Q8NI77 whole entry, looked up): as the sequence (Q8NI77 whole entry, looked up) above
Sequence of KIF18a-Microtubule Complex (Q2XVP4 whole entry partner, looked up): as the sequence (Q2XVP4 whole entry partner, looked up) above
Sequence of KIF18a-Microtubule Complex (P02554 whole entry partner, looked up): as the sequence (P02554 whole entry partner, looked up) above

Turning to `CS(=O)(=O)Nc1ccc2c(c1)C1(CCC3(CC3)CC1)CN2C(=O)c1cccc([C@@H](O)C2CCCC2)n1` (single isomer, unassigned) [Compound 317a], in assay [1], the “koff (off-rate from binding kinetics assay)” value came out at 9.17e-05 s⁻¹, the “kon (on-rate from binding kinetics assay)” value (“kon” for short) amounted to 9170 M⁻¹ s⁻¹, the “disc. t1/2 (dissociation half-life ln(2)/koff)” value stood at 2.1 h and the Ki is 10 nM. The IC50 against hKIF18A (1-374) came to 11 nM.
Turning to `CS(=O)(=O)Nc1ccc2c(c1)C1(CCC3(CC3)CC1)CN2C(=O)c1cccc([C@H](O)C2CCCC2)n1` (single isomer, unassigned) [Compound 317b], in assay [1], the “koff (off-rate from binding kinetics assay)” value came to 9.72e-05 s⁻¹, the “kon” value worked out at 16400 M⁻¹ s⁻¹, the “disc. t1/2 (dissociation half-life ln(2)/koff)” value is on record as 2.0 h and the Ki came out at 5.9 nM. The same molecule showed an IC50 against hKIF18A (1-374) of 10 nM.
On to `CS(=O)(=O)Nc1ccc2c(c1)C1(CCC3(CC3)CC1)CN2C(=O)c1cccc([C@H](O)C2CC(F)(F)C2)c1` (single isomer, unassigned) [Compound 351a], for which, in assay [1], the “koff (off-rate from binding kinetics assay)” value came out at 0.000114 s⁻¹, the “kon” value was 19400 M⁻¹ s⁻¹, the “disc. t1/2 (dissociation half-life ln(2)/koff)” value is on record as 1.7 h and the Ki is 5.8 nM. Also, 8.7 nM corresponded to half-maximal inhibition against hKIF18A (1-374) (IC50).
Regarding `CS(=O)(=O)Nc1ccc2c(c1)C1(CCC3(CC3)CC1)CN2C(=O)c1cccc(S(=O)(=O)N2CC[C@@H](F)C2)c1` [(R)-Compound 239, (R)-N-(1″-(3-((3-fluoropyrrolidin-1-yl)sulfonyl)benzoyl)dispiro[cyclopropane-1,1′-cyclohexane-4′,3″-indolin]-5″- yl)methanesulfonamide], in assay [1], the “kon” value worked out at 16700 M⁻¹ s⁻¹, the “disc. t1/2 (dissociation half-life ln(2)/koff)” value was 8.1 h, the Ki is 1.4 nM and the koff is 2.39e-05 s⁻¹. 9.3 nM corresponded to half-maximal inhibition against hKIF18A (1-374) (IC50).
Take `CS(=O)(=O)Nc1ccc2c(c1)C1(CCCCC1)CN2C(=O)c1cccc(S(=O)(=O)N2CC3(CCC3)C2)c1` [Compound 129, N-(1′-(3-((2-azaspiro[3.3]heptan-2-yl)sulfonyl)benzoyl)spiro[cyclohexane-1,3′-indolin]-5′-yL)methanesulfonamide]: in assay [1], the “kon” value came to 12200 M⁻¹ s⁻¹, the “disc. t1/2 (dissociation half-life ln(2)/koff)” value is listed as 2.5 h, the Ki is 6.3 nM and the koff was 7.78e-05 s⁻¹. Moreover, the IC50 against hKIF18A (1-374) was 45 nM.
In the case of `CC(C)(C)NS(=O)(=O)c1cccc(C(=O)N2CC3(CCC(F)(F)CC3)c3cc(NS(C)(=O)=O)ccc32)c1` [Compound 144, N-(tert-butyl)-3-(4,4-difluoro-5′-(methylsulfonamido)spiro[cyclohexane-1,3′-indoline]-1′-carbonyl)benzenesulfonamide], in assay [1], the “kon” value was found to be 4170 M⁻¹ s⁻¹, the “disc. t1/2 (dissociation half-life ln(2)/koff)” value turned out to be 5.2 h, the Ki was determined as 9.3 nM and the koff is 3.89e-05 s⁻¹. Moreover, half-maximal inhibition at hKIF18A (1-374) (IC50) was put at 51 nM.
The matching figures for `CS(=O)(=O)Nc1ccc2c(c1)C1(CCC3(CC3)CC1)CN2C(=O)c1cccc(S(=O)(=O)C2CCCC2)c1` [Compound 155, N-(1″-(3-(cyclopentylsulfonyl)benzoyl)dispiro [cyclopropane-1,1′-cyclohexane-4′,3″- indolin]-5″-yl)methanesulfonamide]: 30600 M⁻¹ s⁻¹, 6.5 h, 2 nM, 3.06e-05 s⁻¹ and 7.4 nM.
For `CC(C)(C)NS(=O)(=O)c1cccc(C(=O)N2C[C@]3(CC[C@H](C(F)F)CC3)c3cc(NS(C)(=O)=O)ccc32)c1` [Compound 162a], in assay [1], the “koff (off-rate from binding kinetics assay)” value worked out at 1.53e-05 s⁻¹, the “kon” value was 8060 M⁻¹ s⁻¹, the “disc. t1/2 (dissociation half-life ln(2)/koff)” value stood at 13 h and the Ki came to 1.9 nM. Half-maximal inhibition against hKIF18A (1-374) (IC50) required 15 nM.
For the molecule `CS(=O)(=O)Nc1ccc2c(c1)C1(CCC3(CC3)CC1)CN2C(=O)c1cccc(CN2CC(F)(F)C2)c1` [Compound 345, N-(1″-(3-((3,3-difluoroazetidin-1-yl)methyl)benzoyl)dispiro[cyclopropane-1,1′-cyclohexane-4′,3″-indolin]-5″-yl)methanesulfonamide], the IC50 against hKIF18A (1-374) is 58 nM.
In the case of `CS(=O)(=O)Nc1ccc2c(c1)C1(CCC3(CC3)CC1)CN2C(=O)c1cccc(CN2CCCO2)c1` [Compound 346, N-(1″-(3-(isoxazolidin-2-ylmethyl)benzoyl)dispiro[cyclopropane-1,1′-cyclohexane-4′,3″-indolin]-5″- yl)methanesulfonamide], the IC50 at hKIF18A (1-374) is 310 nM.
Same read-out and setting: for `CS(=O)(=O)Nc1ccc2c(c1)C1(CCC3(CC3)CC1)CN2C(=O)c1cccc(NC2CCCC2)c1` [Compound 347, N-(1″-(3-(cyclopentylamino)benzoyl)dispiro [cyclopropane-1,1′-cyclohexane-4′,3″- indolin]-5″-yl)methanesulfonamide] the value was 280 nM.
Same read-out and setting: for `CN(c1cccc(C(=O)N2CC3(CCC4(CC4)CC3)c3cc(NS(C)(=O)=O)ccc32)c1)C1CCCC1` [Compound 348, N-(1″-(3-(cyclopentyl(methyl)amino)benzoyl)dispiro[cyclopropane-1,1′-cyclohexane-4′,3″-indolin]-5″- yl)methanesulfonamide] the value was 190 nM.
Same read-out and setting: for `CS(=O)(=O)Nc1ccc2c(c1)C1(CCC3(CC3)CC1)CN2C(=O)c1cccc(CN2CCC(F)(F)C2)c1` [Compound 349, N-(1″-(3-((3,3-difluoropyrrolidin-1-yl)methyl)benzoyl)dispiro [cyclopropane-1,1′-cyclohexane-4′,3″-indolin]-5″- yl)methanesulfonamide] the value was 45 nM.
Take `CS(=O)(=O)Nc1ccc2c(c1)C1(CCC3(CC3)CC1)CN2C(=O)c1cccc(C(O)C2CC(F)(F)C2)c1` (stereo not drawn) [Compound 351, N-(1″-(3-((3,3-difluorocyclobutyl)(hydroxyj)methyl)benzoyl)dispiro[cyclopropane-1,1′-cyclohexane-4′,3″-indolin]-5″- yl)methanesulfonamide]: inhibition at hKIF18A (1-374) was half-maximal at 8.8 nM (IC50).
`CS(=O)(=O)Nc1ccc2c(c1)C1(CCC3(CC3)CC1)CN2C(=O)c1cccc([C@@H](O)C2CC(F)(F)C2)c1` [Compound 351b]: the IC50 on hKIF18A (1-374) was determined as 12 nM.
The same measure, in the same setting: for `CC1(C(O)c2cccc(C(=O)N3CC4(CCC5(CC5)CC4)c4cc(NS(C)(=O)=O)ccc43)c2)CCC1` (stereo not drawn) [Compound 354, N-(1″-(3-(hydroxy(1-methylcyclobutyl)methyl)benzoyl)dispiro[cyclopropane-1,1′-cyclohexane-4′,3″-indolin]-5″- yl)methanesulfonamide] the value was 14 nM; for `CN(C1CC(F)(F)C1)S(=O)(=O)c1cccc(C(=O)N2CC3(CCC4(CC4)CC3)c3cc(NS(C)(=O)=O)ccc32)c1` [Compound 356, N-(3,3-difluorocyclobutyl)-N-methyl-3-(5″- (methylsulfonamido)dispiro[cyclopropane-1,1′-cyclohexane-4′,3″-indoline]-1″-carbonyl)benzenesulfonamide], 51 nM; for `CC(C)(C)CC(O)c1cccc(C(=O)N2CC3(CCC4(CC4)CC3)c3cc(NS(C)(=O)=O)ccc32)c1` (stereo not drawn) [Compound 357, N-(1″-(3-(1-hydroxy-3,3-dimethylbutyl)benzoyl)dispiro[cyclopropane-1,1′-cyclohexane-4′,3″-indolin]-5″-yl)methanesulfonamide], 11 nM.
The same measure, in the same setting: for `CS(=O)(=O)Nc1ccc2c(c1)C1(CCC3(CC3)CC1)CN2C(=O)c1cccc(CN2C[C@@H]3[C@H](C2)C3(F)F)c1` [Compound 358, N-(1″-(3-((6,6-difluoro-3-azabicyclo[3.1.0]hexan-3-yl)methyl)benzoyl)dispiro[cyclopropane-1,1′-cyclohexane-4′,3″-indolin]-5″- yl)methanesulfonamide] the value was 28 nM; for `CC(C)(C)NS(=O)(=O)c1cccc(C(=O)N2C[C@]3(CC[C@H](C(F)(F)F)CC3)c3cc(NS(C)(=O)=O)ccc32)c1` [Compound 361a], 15 nM.
Still for that read-out and setting: for `CC(C)(C)NS(=O)(=O)c1cccc(C(=O)N2C[C@]3(CC[C@@H](C(F)(F)F)CC3)c3cc(NS(C)(=O)=O)ccc32)c1` [Compound 361b] the value was 100 nM.
For `CP(=O)(CC1CCC1)c1cccc(C(=O)N2CC3(CCC4(CC4)CC3)c3cc(NS(C)(=O)=O)ccc32)c1` (stereo not drawn) [Compound 362], at hKIF18A (1-374), the midpoint of inhibition, the IC50, lay at 35 nM.
On the same count and under the same terms, for `CS(=O)(=O)Nc1ccc2c(c1)C1(CCC3(CC3)CC1)CN2C(=O)c1cc(C(O)C2CCCC2)cs1` (stereo not drawn) [Compound 364, N-(1″-(4-(cyclopentyl(hydroxy)methyl)thiophene-2-carbonyl)dispiro[cyclopropane-1,1′-cyclohexane-4′,3″-indolin]-5″- yl)methanesulfonamide] the value was 5.1 nM.
Same read-out and setting: for `CS(=O)(=O)Nc1ccc2c(c1)C1(CCC3(CC3)CC1)CN2C(=O)c1ccc(C(O)C2CC(F)(F)C2)o1` (stereo not drawn) [Compound 369, N-(1″-(5-((3,3-difluorocyclobutyl)(hydroxy)methyl)furan-2-carbonyl)dispiro[cyclopropane-1,1′-cyclohexane-4′,3″-indolin]-5″- yl)methanesulfonamide] the value was 7.1 nM.
Same read-out and setting: for “N-(1-hydroxy-2-methylpropan-2-yl)-3- (5″- (methylsulfonamido)dispiro[cyclopropane- 1,1′-cyclohexane-4′,3″-indoline]- 1″-carbonyl)benzenesulfonamide [Compound 194]” the value was 50 nM.

One may read the IC50 as the concentration needed to halve the response being measured. A high value points to a need for much substance. What is called koff is the first-order rate constant of dissociation.
